PubChem BioAssay AID328 (DTP/NCI, 2004)
“And” between values parts separate entries of the source, which are not always exact repeats. Equal entries are not always repeated. Inconclusive results and toxic doses are left out.

Test system: BDF1 mice, P388 leukemia ip, median survival T/C
Assay: NCI In Vivo Anticancer Drug Screen. Data for tumor model P388 Leukemia (intraperitoneal) in B6D2F1 (BDF1) mice
Conditions: endpoint: median survival time, higher = longer survival
Method in brief: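 T/C = treated-group survival ÷ vehicle-control survival; tumour transplanted into mice before dosing.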

## Cc1ccc(S(=O)(=O)N(C)c2ccc(C#N)c(Cl)c2Cl)cc1
dose: 100.0 mg/kg/injection, schedule: Q04DX003 (ip), vehicle: saline with Tween-80
  T/C: 90 % of control
dose: 200.0 mg/kg/injection, schedule: Q04DX003 (ip), vehicle: saline with Tween-80
  T/C: 86 % of control
dose: 400.0 mg/kg/injection, schedule: Q04DX003 (ip), vehicle: saline with Tween-80
  T/C: 90 % of control

## CCC1=CC(C(O)CC(C)C)C(C)(Cc2ccc(CC)cn2)NC1c1ccccc1 (stereo unspecified)
dose: 25.0 mg/kg/injection, schedule: Q04DX002 (ip), vehicle: saline with Tween-80
  T/C: 101 % of control
dose: 50.0 mg/kg/injection, schedule: Q04DX002 (ip), vehicle: saline with Tween-80
  T/C: 106 % of control

## CC(C#N)Oc1cccc2ccccc12 (stereo unspecified)
dose: 2.0 mg/kg/injection, schedule: Q01DX009 (ip), vehicle: DMSO
  T/C: 96 % of control
dose: 3.0 mg/kg/injection, schedule: Q01DX009 (ip), vehicle: DMSO
  T/C: 115 % of control
dose: 4.5 mg/kg/injection, schedule: Q01DX009 (ip), vehicle: DMSO
  T/C: 110 % of control
dose: 6.0 mg/kg/injection, schedule: Q01DX009 (ip), vehicle: DMSO
  T/C: 110 % of control
dose: 12.0 mg/kg/injection, schedule: Q01DX009 (ip), vehicle: DMSO
  T/C: 120 % of control
dose: 12.5 mg/kg/injection, schedule: Q01DX009 (ip), vehicle: DMSO
  T/C: 88 % of control
dose: 25.0 mg/kg/injection, schedule: Q01DX009 (ip), vehicle: DMSO
  T/C: 88 % of control
dose: 100.0 mg/kg/injection, schedule: Q04DX003 (ip), vehicle: DMSO
  T/C: 100 % of control

## Cc1c[nH]c2nccnc12
dose: 1.56 mg/kg/injection, schedule: Q01DX009 (ip), vehicle: water
  T/C: 103 % of control
dose: 3.12 mg/kg/injection, schedule: Q01DX009 (ip), vehicle: water
  T/C: 94 % of control and 105 % of control
dose: 6.25 mg/kg/injection, schedule: Q01DX009 (ip), vehicle: water
  T/C: 93 % of control and 94 % of control and 101 % of control
dose: 12.5 mg/kg/injection, schedule: Q01DX009 (ip), vehicle: water
  T/C: 91 % of control and 106 % of control
dose: 50.0 mg/kg/injection, schedule: Q01DX009 (ip), vehicle: water
  T/C: 90 % of control and 99 % of control
dose: 50.0 mg/kg/injection, schedule: Q04DX003 (ip), vehicle: water
  T/C: 94 % of control
dose: 100.0 mg/kg/injection, schedule: Q01DX009 (ip), vehicle: water
  T/C: 89 % of control and 106 % of control
dose: 100.0 mg/kg/injection, schedule: Q04DX003 (ip), vehicle: water
  T/C: 94 % of control
dose: 200.0 mg/kg/injection, schedule: Q01DX009 (ip), vehicle: water
  T/C: 108 % of control
dose: 200.0 mg/kg/injection, schedule: Q04DX003 (ip), vehicle: water
  T/C: 103 % of control
dose: 400.0 mg/kg/injection, schedule: Q01DX009 (ip), vehicle: water
  T/C: 99 % of control
dose: 400.0 mg/kg/injection, schedule: Q04DX003 (ip), vehicle: water
  T/C: 92 % of control

## COc1cccc2c1CCC1=C2CC=C2CC3(CCC21C)OCCO3 (stereo unspecified)
dose: 5.0 mg/kg/injection, schedule: Q04DX003 (sc), vehicle: steriod suspending solution
  T/C: 109 % of control
dose: 10.0 mg/kg/injection, schedule: Q04DX003 (sc), vehicle: steriod suspending solution
  T/C: 104 % of control
dose: 20.0 mg/kg/injection, schedule: Q04DX003 (sc), vehicle: steriod suspending solution
  T/C: 118 % of control

## COc1cc(C=Nc2ccc(-n3ccnc3C)cc2)ccc1N(CCCl)CCCl
dose: 5.0 mg/kg/injection, schedule: Q01DX009 (ip), vehicle: Klucel (hydroxypropylcellulose) (HPC)
  T/C: 157 % of control
dose: 7.5 mg/kg/injection, schedule: Q01DX009 (ip), vehicle: Klucel (hydroxypropylcellulose) (HPC)
  T/C: 162 % of control

## C1CC[N-]CC1.C1CC[N-]CC1.C1CC[N-]CC1.C1CC[N-]CC1.N#C[S-].N#C[S-].[Ni]
dose: 5.0 mg/kg/injection, schedule: Q01DX009 (ip), vehicle: saline with Tween-80
  T/C: 100 % of control
dose: 10.0 mg/kg/injection, schedule: Q01DX009 (ip), vehicle: saline with Tween-80
  T/C: 100 % of control
dose: 20.0 mg/kg/injection, schedule: Q01DX009 (ip), vehicle: saline with Tween-80
  T/C: 108 % of control

## O=C(c1ccccc1)C(Br)C(Br)C(=O)c1ccccc1 (stereo unspecified)
dose: 100.0 mg/kg/injection, schedule: Q01DX009 (ip), vehicle: Klucel (hydroxypropylcellulose) (HPC)
  T/C: 115 % of control
dose: 200.0 mg/kg/injection, schedule: Q01DX009 (ip), vehicle: Klucel (hydroxypropylcellulose) (HPC)
  T/C: 100 % of control
dose: 400.0 mg/kg/injection, schedule: Q01DX009 (ip), vehicle: Klucel (hydroxypropylcellulose) (HPC)
  T/C: 95 % of control
